Experiment: Stability of cannabinoid compounds and Vitamin E components in Beverage 1 (AB White) by LCMSMS
Type: physicochemical
Settings: for Stability of Plant-Derived Cannabinoid Compounds in AB White, 8° C.: AB White stored at 8° C.; for Stability of Plant-Derived Cannabinoid Compounds in AB White, 21-25° C.: AB White stored at 21-25° C.
Protocol: The stability of the plant-derived cannabinoid compounds and Vitamin E components of the beverage stored 8° C. and at room temperature (21-25° C.) were monitored, over a period of 570 days via Liquid Chromatography-tandem Mass Spectrometry [LCMSMS, Agilent 6590, C18, 3×50 mm, 2.7 m (Agilent InfinityLab Poroshell 120 EC-C18), Electrospray Ionization detector]. The LCMSMS was calibrated for 0-1000 ng/ml cannabinoids with the same resin material used in the preparation of the concentrates. At each time period, 100 ml of beverage was diluted with 10 ml of methanol and injected into the LCMSMS for analysis.

## CCCCCc1cc(O)c2c(c1)OC(C)(C)c1ccc(C)cc1-2 [CBN, cannabinol]
0 days
  Stability of Plant-Derived Cannabinoid Compounds in AB White, 8° C.: 2.79 µg/mL
  Stability of Plant-Derived Cannabinoid Compounds in AB White, 21-25° C.: 2.79 µg/mL
1 days
  Stability of Plant-Derived Cannabinoid Compounds in AB White, 8° C.: 2.77 µg/mL
  Stability of Plant-Derived Cannabinoid Compounds in AB White, 21-25° C.: 2.79 µg/mL
2 days
  Stability of Plant-Derived Cannabinoid Compounds in AB White, 8° C.: 2.72 µg/mL
  Stability of Plant-Derived Cannabinoid Compounds in AB White, 21-25° C.: 2.81 µg/mL
3 days
  Stability of Plant-Derived Cannabinoid Compounds in AB White, 8° C.: 2.73 µg/mL
  Stability of Plant-Derived Cannabinoid Compounds in AB White, 21-25° C.: 2.73 µg/mL
5 days
  Stability of Plant-Derived Cannabinoid Compounds in AB White, 8° C.: 2.76 µg/mL
  Stability of Plant-Derived Cannabinoid Compounds in AB White, 21-25° C.: 2.80 µg/mL
8 days
  Stability of Plant-Derived Cannabinoid Compounds in AB White, 8° C.: 2.75 µg/mL
  Stability of Plant-Derived Cannabinoid Compounds in AB White, 21-25° C.: 2.71 µg/mL
9 days
  Stability of Plant-Derived Cannabinoid Compounds in AB White, 8° C.: 2.76 µg/mL
  Stability of Plant-Derived Cannabinoid Compounds in AB White, 21-25° C.: 2.78 µg/mL
10 days
  Stability of Plant-Derived Cannabinoid Compounds in AB White, 8° C.: 2.79 µg/mL
  Stability of Plant-Derived Cannabinoid Compounds in AB White, 21-25° C.: 2.77 µg/mL
11 days
  Stability of Plant-Derived Cannabinoid Compounds in AB White, 8° C.: 2.71 µg/mL
  Stability of Plant-Derived Cannabinoid Compounds in AB White, 21-25° C.: 2.80 µg/mL
12 days
  Stability of Plant-Derived Cannabinoid Compounds in AB White, 8° C.: 2.80 µg/mL
  Stability of Plant-Derived Cannabinoid Compounds in AB White, 21-25° C.: 2.75 µg/mL
15 days
  Stability of Plant-Derived Cannabinoid Compounds in AB White, 8° C.: 2.79 µg/mL
  Stability of Plant-Derived Cannabinoid Compounds in AB White, 21-25° C.: 2.81 µg/mL
16 days
  Stability of Plant-Derived Cannabinoid Compounds in AB White, 8° C.: 2.77 µg/mL
  Stability of Plant-Derived Cannabinoid Compounds in AB White, 21-25° C.: 2.75 µg/mL
17 days
  Stability of Plant-Derived Cannabinoid Compounds in AB White, 8° C.: 2.82 µg/mL
  Stability of Plant-Derived Cannabinoid Compounds in AB White, 21-25° C.: 2.70 µg/mL
18 days
  Stability of Plant-Derived Cannabinoid Compounds in AB White, 8° C.: 2.71 µg/mL
  Stability of Plant-Derived Cannabinoid Compounds in AB White, 21-25° C.: 2.78 µg/mL
19 days
  Stability of Plant-Derived Cannabinoid Compounds in AB White, 8° C.: 2.71 µg/mL
  Stability of Plant-Derived Cannabinoid Compounds in AB White, 21-25° C.: 2.73 µg/mL
22 days
  Stability of Plant-Derived Cannabinoid Compounds in AB White, 8° C.: 2.76 µg/mL
  Stability of Plant-Derived Cannabinoid Compounds in AB White, 21-25° C.: 2.69 µg/mL
23 days
  Stability of Plant-Derived Cannabinoid Compounds in AB White, 8° C.: 2.71 µg/mL
  Stability of Plant-Derived Cannabinoid Compounds in AB White, 21-25° C.: 2.68 µg/mL
24 days
  Stability of Plant-Derived Cannabinoid Compounds in AB White, 8° C.: 2.75 µg/mL
  Stability of Plant-Derived Cannabinoid Compounds in AB White, 21-25° C.: 2.79 µg/mL
25 days
  Stability of Plant-Derived Cannabinoid Compounds in AB White, 8° C.: 2.75 µg/mL
  Stability of Plant-Derived Cannabinoid Compounds in AB White, 21-25° C.: 2.75 µg/mL
26 days
  Stability of Plant-Derived Cannabinoid Compounds in AB White, 8° C.: 2.76 µg/mL
  Stability of Plant-Derived Cannabinoid Compounds in AB White, 21-25° C.: 2.69 µg/mL
29 days
  Stability of Plant-Derived Cannabinoid Compounds in AB White, 8° C.: 2.76 µg/mL
  Stability of Plant-Derived Cannabinoid Compounds in AB White, 21-25° C.: 2.75 µg/mL
30 days
  Stability of Plant-Derived Cannabinoid Compounds in AB White, 8° C.: 2.78 µg/mL
  Stability of Plant-Derived Cannabinoid Compounds in AB White, 21-25° C.: 2.72 µg/mL
60 days
  Stability of Plant-Derived Cannabinoid Compounds in AB White, 8° C.: 2.68 µg/mL
  Stability of Plant-Derived Cannabinoid Compounds in AB White, 21-25° C.: 2.63 µg/mL
90 days
  Stability of Plant-Derived Cannabinoid Compounds in AB White, 8° C.: 2.74 µg/mL
  Stability of Plant-Derived Cannabinoid Compounds in AB White, 21-25° C.: 2.66 µg/mL
120 days
  Stability of Plant-Derived Cannabinoid Compounds in AB White, 8° C.: 2.72 µg/mL
  Stability of Plant-Derived Cannabinoid Compounds in AB White, 21-25° C.: 2.67 µg/mL
150 days
  Stability of Plant-Derived Cannabinoid Compounds in AB White, 8° C.: 2.69 µg/mL
  Stability of Plant-Derived Cannabinoid Compounds in AB White, 21-25° C.: 2.77 µg/mL
180 days
  Stability of Plant-Derived Cannabinoid Compounds in AB White, 8° C.: 2.77 µg/mL
  Stability of Plant-Derived Cannabinoid Compounds in AB White, 21-25° C.: 2.68 µg/mL
210 days
  Stability of Plant-Derived Cannabinoid Compounds in AB White, 8° C.: 2.75 µg/mL
  Stability of Plant-Derived Cannabinoid Compounds in AB White, 21-25° C.: 2.74 µg/mL
240 days
  Stability of Plant-Derived Cannabinoid Compounds in AB White, 8° C.: 2.70 µg/mL
  Stability of Plant-Derived Cannabinoid Compounds in AB White, 21-25° C.: 2.71 µg/mL
270 days
  Stability of Plant-Derived Cannabinoid Compounds in AB White, 8° C.: 2.75 µg/mL
  Stability of Plant-Derived Cannabinoid Compounds in AB White, 21-25° C.: 2.67 µg/mL
300 days
  Stability of Plant-Derived Cannabinoid Compounds in AB White, 8° C.: 2.71 µg/mL
  Stability of Plant-Derived Cannabinoid Compounds in AB White, 21-25° C.: 2.73 µg/mL
330 days
  Stability of Plant-Derived Cannabinoid Compounds in AB White, 8° C.: 2.75 µg/mL
  Stability of Plant-Derived Cannabinoid Compounds in AB White, 21-25° C.: 2.75 µg/mL
360 days
  Stability of Plant-Derived Cannabinoid Compounds in AB White, 8° C.: 2.68 µg/mL
  Stability of Plant-Derived Cannabinoid Compounds in AB White, 21-25° C.: 2.67 µg/mL
390 days
  Stability of Plant-Derived Cannabinoid Compounds in AB White, 8° C.: 2.67 µg/mL
  Stability of Plant-Derived Cannabinoid Compounds in AB White, 21-25° C.: 2.66 µg/mL
420 days
  Stability of Plant-Derived Cannabinoid Compounds in AB White, 8° C.: 2.70 µg/mL
  Stability of Plant-Derived Cannabinoid Compounds in AB White, 21-25° C.: 2.62 µg/mL
450 days
  Stability of Plant-Derived Cannabinoid Compounds in AB White, 8° C.: 2.70 µg/mL
  Stability of Plant-Derived Cannabinoid Compounds in AB White, 21-25° C.: 2.61 µg/mL
480 days
  Stability of Plant-Derived Cannabinoid Compounds in AB White, 8° C.: 2.66 µg/mL
  Stability of Plant-Derived Cannabinoid Compounds in AB White, 21-25° C.: 2.57 µg/mL
510 days
  Stability of Plant-Derived Cannabinoid Compounds in AB White, 8° C.: 2.60 µg/mL
  Stability of Plant-Derived Cannabinoid Compounds in AB White, 21-25° C.: 2.66 µg/mL
540 days
  Stability of Plant-Derived Cannabinoid Compounds in AB White, 8° C.: 2.56 µg/mL
  Stability of Plant-Derived Cannabinoid Compounds in AB White, 21-25° C.: 2.63 µg/mL
570 days
  Stability of Plant-Derived Cannabinoid Compounds in AB White, 8° C.: 2.56 µg/mL
  Stability of Plant-Derived Cannabinoid Compounds in AB White, 21-25° C.: 2.56 µg/mL

— patent publication US20260130395A1, “Water Dispersible Botanical Compositions” (Aquila Black Limited, priority 2021, published 2026)
